Assay results reported in patent US9708336B2, “Metallo-beta-lactamase inhibitors” (priority 2014, dated 2017).
Read-outs that look alike come from different tables or passages of the source.

What was measured:
NDM-1 = NDM-1 (Klebsiella pneumoniae, UniProt C7C422); assay: biochemical; format: biochemical; details: read-out: NDM-1 IC50
IMP-1 = IMP-1 (Serratia marcescens, UniProt P52699); assay: biochemical; format: biochemical; details: read-out: IMP-1 IC50
VIM-1 = VIM-1 (Pseudomonas aeruginosa (strain ATCC 15692 / DSM 22644 / CIP 104116 / JCM 14847 / LMG 12228 / 1C / PRS 101 / PAO1), UniProt A0A0F7KYQ8); assay: Enzyme activity: determination of IC50, fluorescence assay with CCF2-FA substrate (VIM-1); format: biochemical
[1] = test system: Escherichia coli expressing NDM-1 (CLB30016); assay: Antibiotic potentiation activity: synergistic concentration (MITC95) with imipenem, OD600 growth; format: cell-based; details: for Escherichia coli expressing NDM-1 (CLB 30016) MITC95: concentration giving 95% inhibition of bacterial growth
In short: (§1)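 Compound activity is tested with and without imipenem, which is present at 4 μg/ml (or 1 μg/ml) in the well. Bacteria in 1.1× CAMHB are incubated 22–24 h at 35 °C; absorbance gives the growth endpoint.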

[2] = test system: Klebsiella pneumoniae expressing VIM-1 (IHMA599644); assay: as above; format: cell-based; details: for Klebsiella pneumoniae expressing VIM-1 (IHMA 599644) MITC95: concentration giving 95% inhibition of bacterial growth
In short: as §1

[3] = test system: Serratia marcescens expressing IMP-1 (CL5741); assay: as above; format: cell-based; details: for Serratia marcescens expressing IMP-1 (CL5741) MITC95: concentration giving 95% inhibition of bacterial growth
In short: as §1

[4] = NDM-1 enzyme, CCF2-FA substrate
[5] = IMP-1 enzyme, CCF2-FA substrate
[6] = VIM-1 enzyme, CCF2-FA substrate, read-out: VIM-1 IC50
[7] = (CLB30016, NDM-1), 95% growth inhibition
[8] = Klebsiella pneumoniae IHMA599644 (VIM-1), 95% growth inhibition
[9] = Serratia marcescens CL5741 (IMP-1), 95% growth inhibition
[10] = fluorescence assay with CCF2-FA substrate
[11] = fluorescence assay with CCF2-FA substrate, read-out: VIM-1 IC50
[12] = NDM-1 enzyme, CCF2-FA fluorescence assay
[13] = IMP-1 enzyme, CCF2-FA fluorescence assay
[14] = VIM-1 enzyme, CCF2-FA fluorescence assay, read-out: VIM-1 IC50
[15] = Escherichia coli expressing NDM-1 (CLB30016), 95% growth inhibition
[16] = Klebsiella pneumoniae expressing VIM-1 (IHMA599644), 95% growth inhibition
[17] = Serratia marcescens expressing IMP-1 (CL5741), 95% growth inhibition

Chain of NDM-1 (C7C422 whole entry, looked up, species assumed): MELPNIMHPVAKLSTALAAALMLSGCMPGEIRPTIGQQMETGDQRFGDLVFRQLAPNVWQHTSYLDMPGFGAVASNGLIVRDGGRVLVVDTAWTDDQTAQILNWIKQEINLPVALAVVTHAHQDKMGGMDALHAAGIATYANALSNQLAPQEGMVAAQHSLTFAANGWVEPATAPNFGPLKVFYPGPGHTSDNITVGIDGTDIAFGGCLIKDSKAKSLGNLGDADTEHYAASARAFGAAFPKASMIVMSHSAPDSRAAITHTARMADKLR
Chain of IMP-1 (P52699 whole entry, looked up): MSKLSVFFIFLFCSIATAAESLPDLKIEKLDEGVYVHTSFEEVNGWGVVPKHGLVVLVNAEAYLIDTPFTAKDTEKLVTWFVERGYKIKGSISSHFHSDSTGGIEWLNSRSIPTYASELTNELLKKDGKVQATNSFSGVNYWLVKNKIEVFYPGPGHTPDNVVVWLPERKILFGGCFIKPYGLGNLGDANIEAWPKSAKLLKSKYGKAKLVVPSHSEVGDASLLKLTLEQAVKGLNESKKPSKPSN

Row | SMILES | IC50 (NDM-1; [4]) | IC50 (IMP-1; [5]) | Escherichia coli MITC95 [1, 7] | Klebsiella pneumoniae MITC95 [2, 8] | Serratia marcescens MITC95 [3, 9] | IC50 (NDM-1; [10]) | IC50 (IMP-1; [10]) | IC50 (NDM-1; [12]) | IC50 (IMP-1; [13]) | IC50 (VIM-1; [14]) | Escherichia coli MITC95 [1, 15] | Klebsiella pneumoniae MITC95 [2, 16] | Serratia marcescens MITC95 [3, 17] | also measured
1 | NCCC1CCC(N[C@H]2CC[C@H](c3ccc(C(F)(F)F)c(S(N)(=O)=O)c3-c3nnn[nH]3)CC2)CC1 (stereo partly drawn) [Example 705, 3-(4-{[4-(2-aminoethyl)cyclohexyl]a-mino}cyclohexyl)-2-(1H-tetrazol-5-yl)-6-(trifluoromethyl)benzene sulfonamide] | 18.2 nM | 61.1 nM | 2.344 µM | 12.5 µM | 4.688 µM |  |  |  |  |  |  |  |  | IC50 (VIM-1; [6]): 5.7 nM
2 | NS(=O)(=O)c1nccc(N2CCC(Cn3ccnc3)CC2)c1-c1nnn[nH]1 [Example 233, 4-[4-(1H-imidazol-1-ylmethyl)piperidin-1-yl]-3-(1H-tetrazol-5-yl)pyridine-2-sulfonamide] |  |  |  |  |  | 60.9 nM | 195 nM |  |  |  |  |  |  | IC50 (VIM-1; [11]): 97.6 nM; Escherichia coli expressing NDM-1 (CLB 30016) MITC95 [1]: 0.7813 µM; Klebsiella pneumoniae expressing VIM-1 (IHMA 599644) MITC95 [2]: 37.5 µM; Serratia marcescens expressing IMP-1 (CL5741) MITC95 [3]: 6.25 µM
3 | NC1=NCC(c2ccc(-c3cccc(S(N)(=O)=O)c3-c3nnn[nH]3)cc2)CN1 (stereo not drawn) [Example 511, 4′-(2-Amino-1,4,5,6-tetrahydropyrimidin-5-yl)-2-(1H-tetrazol-5-yl)-[1,1′-biphenyl]-3-sulfonamide] | 4.8 nM | 14.3 nM | 3.125 µM | 100 µM | 3.125 µM |  |  |  |  |  |  |  |  | IC50 (VIM-1; VIM-1 IC50, VIM-1 enzyme, CCF2-FA substrate): 41.6 nM
4 | Nc1ncc(-c2ccc(Br)c(S(N)(=O)=O)c2-c2nn[nH]n2)s1 [Example 424, 3-(2-aminothiazol-5-yl)-6-bromo-2-(2H-tetrazol-5-yl)benzenesulfonamide] |  |  |  |  |  |  |  | 18.9 nM | 80.8 nM | 32.7 nM | 0.7813 µM | 15.63 µM | 1.563 µM | 
5 | CS(=O)(=O)Nc1ccc(-c2ccc(C(F)(F)F)c(S(N)(=O)=O)c2-c2nn[nH]n2)cc1 [Example 274, 4′-(methylsulfonamido)-2-(2H-tetrazol-5-yl)-4-(trifluoromethyl)-[1,1′-biphenyl]-3-sulfonamide] |  |  |  |  |  |  |  | 0.637 nM | 0.637 nM | 0.637 nM | 0.7813 µM | 4.688 µM | 0.1953 µM | 
6 | NCCc1ccc(-c2ccc(C(F)(F)F)c(S(N)(=O)=O)c2-c2nnn[nH]2)cc1 [Example 707, 4′-(2-aminoethyl)-2-(1H-tetrazol-5-yl)-4-(trifluoromethyl)biphenyl-3-sulfonamide] | 5.59 nM | 6.67 nM | 3.125 µM | 1.563 µM | 6.25 µM |  |  |  |  |  |  |  |  | IC50 (VIM-1; [6]): 0.249 nM
7 | NC[C@H]1CC[C@H](c2ccc(CCC3CCNCC3)c(S(N)(=O)=O)c2-c2nnn[nH]2)CC1 [Example 591, 3-((1r,4r)-4-(aminomethyl)cyclohexyl)-6-(2-(piperidin-4-yl)ethyl)-2-(1H-tetrazol-5-yl)benzenesulfonamide] | 16 nM | 320 nM | 1.563 µM | 25 µM | 6.25 µM |  |  |  |  |  |  |  |  | IC50 (VIM-1; [6]): 574 nM
8 | NC1(CNC2CCC(c3ccc(C(F)(F)F)c(S(N)(=O)=O)c3-c3nnn[nH]3)CC2)CC1 (stereo not drawn) [Example 830, 3-[4-[(1-aminocyclopropyl)methylamino]cyclohexyl]-2-(1H-tetrazol-5-yl)-6-(trifluoromethyl)benzenesulfonamide] |  |  |  |  |  | 1.93 nM | 3.82 nM |  |  |  |  |  |  | IC50 (VIM-1; [11]): 0.247 nM; Escherichia coli MITC95 ([1]; CLB30016 (NDM-1), 95% inhibition of bacterial growth): 0.25 µM; Klebsiella pneumoniae MITC95 ([2]; IHMA599644 (VIM-1), 95% inhibition of bacterial growth): 0.8542 µM; Serratia marcescens MITC95 ([3]; CL5741 (IMP-1), 95% inhibition of bacterial growth): 0.724 µM
9 | NS(=O)(=O)c1c(CC[C@H]2CC[C@@H](N)CC2)ccc(-c2ccc(C3CCNCC3)cc2)c1-c1nn[nH]n1 [Example 462, 4-(2-((1s,4r)-4-aminocyclohexyl)ethyl)-4′-(piperidin-4-yl)-2-(2H-tetrazol-5-yl)-[1,1′-biphenyl]-3-sulfonamide] |  |  |  |  |  |  |  | 3.8 nM | 11.5 nM | 8.13 nM | 0.7813 µM | 18.75 µM | 1.563 µM | 
10 | NS(=O)(=O)c1cccc(-c2ccc3nc(C(=O)O)ccc3c2)c1-c1nn[nH]n1 [Example 287, 6-(3-sulfamoyl-2-(2H-tetrazol-5-yl)phenyl)quinoline-2-carboxylic acid] |  |  |  |  |  |  |  | 0.734 nM | 159 nM | 34 nM | 9.375 µM | 37.5 µM | 18.75 µM | 
11 | C[N+]1(C)CCC(c2ccc(-c3cccc(S(N)(=O)=O)c3-c3nnn[nH]3)cc2)CC1.O=C([O-])C(F)(F)F [Example 33, 1,1-dimethyl-4-(3′-sulfamoyl-2′-(1H-tetrazol-5-yl)-[1,1′-biphenyl]-4-yl)piperidin-1-ium 2,2,2-trifluoroacetate] |  |  |  |  |  | 16.6 nM | 70.6 nM |  |  |  |  |  |  | IC50 (VIM-1; [11]): 832 nM; Escherichia coli expressing NDM-1 (CLB 30016) MITC95 [1]: 1.172 µM; Klebsiella pneumoniae expressing VIM-1 (IHMA 599644) MITC95 [2]: 100 µM; Serratia marcescens expressing IMP-1 (CL5741) MITC95 [3]: 1.172 µM
12 | CNCCN1CCC(c2ccc(-c3ccc(C(F)(F)F)c(S(N)(=O)=O)c3-c3nnn[nH]3)cc2)CC1 [Example 674, 4′-{1-[2-(methylamino)ethyl]piperi-din-4-yl}-2-(1H-tetrazol-5-yl)-4-(trifluoromethyl)biphenyl-3-sulfonamide] | 6.63 nM | 2.47 nM | 3.125 µM | 75 µM | 6.25 µM |  |  |  |  |  |  |  |  | IC50 (VIM-1; [6]): 17.4 nM
13 | CN(C)CCCNCc1ccc(-c2cccc(S(N)(=O)=O)c2-c2nnn[nH]2)cc1 [Example 348, 4′-({[3-(dimethylamino)propyl]amino}methyl)-2-(1H-tetrazol-5-yl)biphenyl-3-sulfonamide] |  |  |  |  |  |  |  | 25.4 nM | 1330 nM | 851 nM | 1.172 µM | 75 µM | 9.375 µM | 
14 | NS(=O)(=O)c1c(C(F)(F)F)ccc(N2CCC(c3ccc(CO)cc3)CC2)c1-c1nn[nH]n1 [Example 450, 3-(4-(4-(hydroxymethyl)phenyl)piperidin-1-yl)-2-(2H-tetrazol-5-yl)-6-(trifluoromethyl)benzenesulfonamide] |  |  |  |  |  |  |  | 1.62 nM | 1.28 nM | 1.8 nM | 18.75 µM | 75 µM | 0.03125 µM | 
15 | NS(=O)(=O)c1cccc(CC2CCCCC2)c1-c1nnn[nH]1 [Example 153, 3-(cyclohexylmethyl)-2-(1H-tetrazol-5-yl)benzenesulfonamide] |  |  |  |  |  | 8.25 nM | 71.3 nM |  |  |  |  |  |  | IC50 (VIM-1; VIM-1 IC50, fluorescence assay with CCF2-FA substrate): 252 nM; Escherichia coli expressing NDM-1 (CLB 30016) MITC95 [1]: 4.688 µM; Klebsiella pneumoniae expressing VIM-1 (IHMA 599644) MITC95 [2]: >200 µM; Serratia marcescens expressing IMP-1 (CL5741) MITC95 [3]: 2.344 µM
16 | NS(=O)(=O)c1cccc(C2CCCC2)c1-c1nnn[nH]1 [Example 160, 3-cyclopentyl-2-(1H-tetrazol-5-yl)benzenesulfonamide] |  |  |  |  |  | 9 nM | 251 nM |  |  |  |  |  |  | IC50 (VIM-1; [11]): 280 nM; Escherichia coli expressing NDM-1 (CLB 30016) MITC95 [1]: 0.7813 µM; Klebsiella pneumoniae expressing VIM-1 (IHMA 599644) MITC95 [2]: 75 µM; Serratia marcescens expressing IMP-1 (CL5741) MITC95 [3]: 9.375 µM
17 | NS(=O)(=O)c1cccc(Cc2ccccc2)c1-c1nnn[nH]1 [Example 162, 3-benzyl-2-(1H-tetrazol-5-yl)benzenesulfonamide] |  |  |  |  |  | 18.9 nM | 571 nM |  |  |  |  |  |  | IC50 (VIM-1; [11]): 691 nM; Escherichia coli expressing NDM-1 (CLB 30016) MITC95 [1]: 1.563 µM; Klebsiella pneumoniae expressing VIM-1 (IHMA 599644) MITC95 [2]: 200 µM; Serratia marcescens expressing IMP-1 (CL5741) MITC95 [3]: 12.5 µM
18 | NS(=O)(=O)c1c(C(F)(F)F)ccc(N2CCCC(CCO)C2)c1-c1nnn[nH]1 (stereo not drawn) [Example 660, 3-[3-(2-hydroxyethyl)piperidin-1-yl]-2-(1H-tetrazol-5-yl)-6-(trifluoromethyl)benzenesulfonamide] | 4.7 nM | 10.4 nM | 2.344 µM | 6.25 µM | 0.3906 µM |  |  |  |  |  |  |  |  | IC50 (VIM-1; [6]): 1.31 nM
19 | NCc1nccc2cc(-c3cccc(S(N)(=O)=O)c3-c3nn[nH]n3)ccc12 [Example 280, 3-(1-(aminomethyl)isoquinolin-6-yl)-2-(2H-tetrazol-5-yl)benzenesulfonamide] |  |  |  |  |  |  |  | 1.44 nM | 15.8 nM |  | 0.5859 µM | 3.125 µM | 6.25 µM | IC50 (VIM-1; VIM-1 IC50, VIM-1 enzyme, CCF2-FA fluorescence assay): 20.4 nM
